According to patent US12606528B2, “Methods and materials for inhibiting NF-kB activity” (University of Pittsburgh - Of the Commonwealth System of …, priority 2019, dated 2026):
pIC50: −log10 of the molar value.

Key:
TNF release = assay: TNF assay: TNF release from LPS-stimulated human PBMCs (TNF ELISA); type: cell-based; conditions: PBMC; human PBMCs; compounds 2 hours before LPS (10 ng/ml) for 18 hours; supernatant TNF ELISA; read-out: IC50 (TNF assay)
Method in brief: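 Human PBMCs at 10k/well pretreated with compound dilutions 2 h, then stimulated with LPS (10 ng/mL) for 18 h. TNF in supernatants quantified by ELISA; IC50 for inhibition of TNF release fitted from concentration–response.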

NF-κB = NF-κB assay: THP1-NF-κB-LUC cells, LPS-stimulated secreted luciferase; type: cell-based; conditions: THP1-NF-κB-LUC cells; compounds 2 hours before LPS (10 ng/mL) for 18 hours; secreted luciferase; read-out: IC50 (NF-κB assay)
Method in brief: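 THP1-NF-κB-LUC cells (25k/well) were pretreated with compounds for 2 h, then stimulated with LPS (10 ng/mL) for 18 h. Secreted luciferase was measured and normalized to vehicle, and IC50 was fitted from the concentration series.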

Row | pIC50 (TNF release) | pIC50 (NF-κB) | SMILES
1 | < 5.00 | 6.00 to 7.00 | CC(C)CC1Oc2cc(S(=O)(=O)Nc3ccc(OC(F)(F)F)cc3)c(Br)cc2NC1=O (centres unmarked) [BC19758]
2 | < 5.00 | > 7.00 | CC(C)CC1Oc2c(cc(Br)cc2S(=O)(=O)Nc2ccc(F)c(F)c2)NC1=O (centres unmarked) [BC19759]
3 | < 5.00 | > 7.00 | CC(C)CC1Oc2cc(S(=O)(=O)Nc3ccc(F)c(F)c3)c(Br)cc2NC1=O (centres unmarked) [BC19760]
4 | < 5.00 | 6.00 to 7.00 | CC(C)CC1Oc2c(cc(Br)cc2S(=O)(=O)Nc2ccccc2)NC1=O (centres unmarked) [BC19761]
5 | < 5.00 | 6.00 to 7.00 | CC(C)CC1Oc2cc(S(=O)(=O)Nc3ccccc3)c(Br)cc2NC1=O (centres unmarked) [BC19762]
6 | 5.00 to 6.00 | 6.00 to 7.00 | CCc1ccc(NS(=O)(=O)c2cc(Br)cc3c2OC(CC(C)C)C(=O)N3)cc1 (centres unmarked) [BC19763]
7 | < 5.00 | 5.00 to 6.00 | CCc1ccc(NS(=O)(=O)c2cc3c(cc2Br)NC(=O)C(CC(C)C)O3)cc1 (centres unmarked) [BC19764]
8 | < 5.00 | > 7.00 | CC(C)CC1Oc2c(cc(Br)cc2S(=O)(=O)Nc2ccc(C(C)C)cc2)NC1=O (centres unmarked) [BC19765]
9 | 5.00 to 6.00 | 5.00 to 6.00 | CC(C)CC1Oc2cc(S(=O)(=O)Nc3ccc(C(C)C)cc3)c(Br)cc2NC1=O (centres unmarked) [BC19766]
10 | < 5.00 | > 7.00 | Cc1ccc(NS(=O)(=O)c2cc(Br)cc3c2OC(CC(C)C)C(=O)N3)cc1Cl (centres unmarked) [BC19767]
11 | < 5.00 | 5.00 to 6.00 | Cc1ccc(NS(=O)(=O)c2cc3c(cc2Br)NC(=O)C(CC(C)C)O3)cc1Cl (centres unmarked) [BC19768]
12 | < 5.00 | > 7.00 | CC(C)CC1Oc2c(cc(Br)cc2S(=O)(=O)Nc2ccc(F)cc2F)NC1=O (centres unmarked) [BC19769]
13 | < 5.00 | 6.00 to 7.00 | CC(C)CC1Oc2cc(S(=O)(=O)Nc3ccc(F)cc3F)c(Br)cc2NC1=O (centres unmarked) [BC19770]

Further lines, the compound ahead of its results:

Row | SMILES | pIC50 (TNF release) | pIC50 (NF-κB)
14 | CCC1Oc2c(cc(Cl)cc2S(=O)(=O)Nc2ccc(OC(F)(F)F)cc2)NC1=O (centres unmarked) [BC19734] | < 5.00 | > 7.00
15 | CCC1Oc2cc(S(=O)(=O)Nc3ccc(F)c(F)c3)c(Cl)cc2NC1=O (centres unmarked) [BC19735] | < 5.00 | > 7.00
16 | CCC1Oc2c(cc(Cl)cc2S(=O)(=O)Nc2ccc(F)c(F)c2)NC1=O (centres unmarked) [BC19736] | < 5.00 | > 7.00
17 | CCC1Oc2cc(S(=O)(=O)Nc3ccccc3)c(Cl)cc2NC1=O (centres unmarked) [BC19737] | < 5.00 | 6.00 to 7.00
18 | CCC1Oc2c(cc(Cl)cc2S(=O)(=O)Nc2ccccc2)NC1=O (centres unmarked) [BC19738] | < 5.00 | > 7.00
19 | CCC1Oc2cc(S(=O)(=O)Nc3ccc(Cl)cc3)c(Cl)cc2NC1=O (centres unmarked) [BC19739] | < 5.00 | > 7.00
20 | CCC1Oc2c(cc(Cl)cc2S(=O)(=O)Nc2ccc(Cl)cc2)NC1=O (centres unmarked) [BC19740] | < 5.00 | > 7.00
21 | CCc1ccc(NS(=O)(=O)c2cc3c(cc2Cl)NC(=O)C(CC)O3)cc1 (centres unmarked) [BC19741] | < 5.00 | > 7.00
22 | CCc1ccc(NS(=O)(=O)c2cc(Cl)cc3c2OC(CC)C(=O)N3)cc1 (centres unmarked) [BC19742] | 5.00 to 6.00 | > 7.00
23 | CCC1Oc2c(cc(Cl)cc2S(=O)(=O)Nc2ccc(OC)c(Cl)c2)NC1=O (centres unmarked) [BC19744] | 5.00 to 6.00 | > 7.00
24 | CCC1Oc2c(cc(Cl)cc2S(=O)(=O)Nc2ccc(C)c(Cl)c2)NC1=O (centres unmarked) [BC19746] | < 5.00 | > 7.00
25 | CCC1Oc2c(cc(Cl)cc2S(=O)(=O)Nc2ccc(F)cc2F)NC1=O (centres unmarked) [BC19748] | < 5.00 | > 7.00
26 | CCc1cccc(NS(=O)(=O)c2cc3c(cc2Cl)NC(=O)C(CC)O3)c1 (centres unmarked) [BC19749] | < 5.00 | 6.00 to 7.00
27 | CCc1cccc(NS(=O)(=O)c2cc(Cl)cc3c2OC(CC)C(=O)N3)c1 (centres unmarked) [BC19750] | < 5.00 | > 7.00
28 | CCC1Oc2cc(S(=O)(=O)Nc3cccc(Cl)c3)c(Cl)cc2NC1=O (centres unmarked) [BC19751] | < 5.00 | 6.00 to 7.00
29 | CCC1Oc2c(cc(Cl)cc2S(=O)(=O)Nc2cccc(Cl)c2)NC1=O (centres unmarked) [BC19752] | < 5.00 | > 7.00
30 | CCC1Oc2cc(S(=O)(=O)Nc3ccc(C)cc3)c(Cl)cc2NC1=O (centres unmarked) [BC19753] | < 5.00 | > 7.00
31 | CCC1Oc2c(cc(Cl)cc2S(=O)(=O)Nc2ccc(C)cc2)NC1=O (centres unmarked) [BC19754] | 5.00 to 6.00 | > 7.00
32 | CCC1Oc2cc(S(=O)(=O)Nc3ccc(F)cc3Cl)c(Cl)cc2NC1=O (centres unmarked) [BC19755] | < 5.00 | 5.00 to 6.00
33 | CCC1Oc2c(cc(Cl)cc2S(=O)(=O)Nc2ccc(F)cc2Cl)NC1=O (centres unmarked) [BC19756] | < 5.00 | > 7.00
34 | CC(C)CC1Oc2c(cc(Br)cc2S(=O)(=O)Nc2ccc(OC(F)(F)F)cc2)NC1=O (centres unmarked) [BC19757] | < 5.00 | > 7.00
